Data set [1] concerns human peripheral blood mononuclear cells. In kind it is cell-based. The procedure: FIG. 18. Lack of cytotoxicity of immunomodulatory peptides against human peripheral blood mononuclear cells as determined by the low release of cytosolic lactate dehydrogenase.
Venous blood (20 ml) from healthy volunteers was collected in Vacutainer® collection tubes containing sodium heparin as an anticoagulant (Becton Dickinson, Mississauga, ON) in accordance with UBC ethical approval and guidelines. Blood was diluted 1:1 with complete RPMI 1640 medium and separated by centrifugation over a Ficoll-Paque® Plus (Amersham Biosciences, Piscataway, N.J., USA) density gradient. White blood cells were isolated from the buffy coat, washed twice in RPMI 1640 complete medium, and the number of peripheral blood mononuclear cells (PBMC) was determined by Trypan blue exclusion. PBMC (5×10^5) were seeded into 12-well tissue culture dishes (Falcon; Becton Dickinson) at 0.75 to 1×10^6 cells/ml at 37° C. in 5% CO2. The above conditions were chosen to mimic conditions for circulating blood monocytes entering tissues at the site of infection via extravasation.
Following incubation of the cells under various treatment regimens, the tissue culture supernatants were centrifuged at 1000×g for 5 min, then at 10,000×g for 2 min to obtain cell-free samples. […]
Cytotoxicity was assessed using the Lactate dehydrogenase assay. […] Amount of colour formed is detected as increased absorbance measured at […]. […]

For data set [2], the system named is G. mellonella. Nature of the data set: G. mellonella survival, uninfected (peptide toxicity). It counts as in vivo. To be noted: peptide 20 μg/10 μl. As for the experimental part: In brief, prior to injection in G. mellonella, bacterial cells were washed with PBS and then diluted to either 10^4 or 10^5 CFU per 10 μl. A Hamilton syringe was used to inject 10 μl in the G. mellonella last left proleg. The peptides (20 μg/10 μl) were administered by injecting 10 μl into a different proleg within 1 h after injecting the bacteria. Two control groups were used: the first group included uninfected larvae injected with PBS to monitor killing due to physical trauma; the second group included uninfected larvae receiving no treatment at all. Results from experiments in which one or more larvae in either control group died were discarded and the experiments were repeated. To evaluate the toxicity of the peptides, uninfected larvae were injected with peptides. Larvae were placed in the dark at 37° C. and were scored as dead or alive 24 h and 48 h post-infection. […] At least 20 larvae were injected for each treatment. For each treatment, data from at least six independent experiments were combined.

Data set [3] concerns C. elegans. As to the kind of experiment: C. elegans survival, uninfected (peptide toxicity). The conditions noted are these: peptide 20 μg/ml. The procedure:
The C. elegans survival assay was carried out as previously described (Brackman et al., 2011). […] 0.5 ml of this suspension of nematodes was transferred to the wells of a 24-well microtiter plate. An overnight bacterial culture was centrifuged, resuspended in the assay medium, and standardized to 10^8 CFU/ml. Next, 250 μl of this standardized suspension were added to each well, while 250 μl of sterile medium was added to the […]. Peptides were added to the test wells at a final concentration of 20 μg/ml. The assay plates were incubated at 25° C. for up to 2 days. The fraction of dead worms was determined by counting the number of dead worms and the total number of worms in each well, using a dissecting microscope. Peptides were tested at least four times in each assay, and each assay was repeated at least three times (n≥12).

Data set [4] deals with methicillin resistant S. aureus (Sa) biofilm. It counts as cell-based, Staphylococcus aureus. To be noted: peptide 5 μg/ml.
In data set [5] the test system is P. aeruginosa biofilm. It counts as cell-based. To be noted: concentration that reduced biofilm growth by 50%. The procedure: (§1) Methods of assessment of anti-biofilm activity—Biofilm formation was initially analyzed using a static abiotic solid surface assay as described elsewhere (de la Fuente-Nunez et al., 2012). […] Planktonic cells were removed, biofilm cells adhering to the side of the tubes were stained with crystal violet, and absorbance at 595 nm was measured using a microtiter plate reader (Bio-Tek Instruments Inc., United States). Some peptides were screened against two Gram negative organisms, P. aeruginosa and K. pneumoniae using a Bioflux apparatus (AutoMate Scientific, Berkeley, Calif.; http://www.autom8.com/bioflux_biofilm.html), which allows for the high-throughput, real-time analysis of biofilms.

Data set [6] deals with S. aureus biofilm. In kind it is cell-based. To be noted: concentration that reduced biofilm growth by 50%. As for the experimental part:
as §1

Data set [7] relates to Pseudomonas aeruginosa (Pa) biofilm. As to the kind of experiment: static abiotic solid surface (microtiter, crystal violet) / Bioflux biofilm inhibition screen. It counts as cell-based. The conditions noted are these: peptide 10 μg/ml. A digest of the protocol: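 Overnight cultures diluted 1/100 were grown in polypropylene microtiter plates in BM2 medium (pH 7, 0.4% glucose, 0.5% Casamino Acids) or Luria Broth, with peptide at varying concentrations added at time zero. After 22-46 h, adherent biofilm was stained with crystal violet and read at 595 nm. Selected peptides were also screened under flow in a Bioflux system.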

Data set [8] concerns P. aeruginosa biofilms. The conditions noted are these: compound alone; P. aeruginosa. As for the experimental part:
Peptides and various conventional antibiotics were analyzed by checkerboard titration into microtiter trays using CLSI methods (Wiegand, I., K. Hilpert, and R. E. W. Hancock. 2008. Nature Protocols 3:163-175), bacteria added and, after overnight incubation at 37° C., the residual biofilm assessed by the crystal violet method mentioned in the body of the grant, with an A595 of 0.2 considered as 100% biofilm inhibition. The effects of the peptide in reducing the minimal biofilm inhibitory concentration (MBIC) of the antibiotic and vice versa were assessed using the Fractional Inhibitory Concentration (FIC) method whereby ΣFTC=FICA+FICB=(CA/MICA)+(CB/MICB), where MBICA and MBICB are the MBICs of peptide A and antibiotic B alone, respectively, and CA and CB (expressed in μg/ml) are the MICs of the drugs in combination. This conventional clinical microbiology assay is interpreted as follows

In data set [9] the test system is Klebsiella pneumoniae (Kp) biofilm. It counts as cell-based. To be noted: peptide 10 μg/ml. The procedure:
Methods of assessment of anti-biofilm activity—Biofilm formation was initially analyzed using a static abiotic solid surface assay as described elsewhere (de la Fuente-Nunez et al., 2012). Dilutions (1/100) of overnight cultures were incubated in BM2 biofilm-adjusted medium [62 mM potassium phosphate buffer (pH 7), 7 mM (NH4)2SO4, 2 mM MgSO4, 10 μM FeSO4, 0.4% (wt/vol) glucose, 0.5% (wt/vol) Casamino Acids], or a nutrient medium such as Luria Broth, in polypropylene microtiter plates (Falcon, United States) in the absence (control) or presence of peptide. Peptide was added at time zero (prior to adding the diluted, overnight cultures) in varying concentrations, and the decrease in biofilm formation was recorded at 22-46 h for most bacteria. Planktonic cells were removed, biofilm cells adhering to the side of the tubes were stained with crystal violet, and absorbance at 595 nm was measured using a microtiter plate reader (Bio-Tek Instruments Inc., United States). Some peptides were screened against two Gram negative organisms, P. aeruginosa and K. pneumoniae using a Bioflux apparatus (AutoMate Scientific, Berkeley, Calif.; http://www.autom8.com/bioflux_biofilm.html), which allows for the high-throughput, real-time analysis of biofilms.

Data set [10] has as its system P. aeruginosa. To be noted: de la Fuente-Núñez 2012; cited from earlier work.
Data set [11] deals with Pseudomonas aeruginosa (Pa) biofilm. The conditions noted are these: P. aeruginosa; de la Fuente-Núñez 2012; cited from earlier work.

Peptide text beside a SMILES is read from it.

As to `CC[C@H](C)[C@H](NC(=O)[C@H](CC(C)C)NC(=O)[C@@H](NC(=O)[C@H](CCCNC(=N)N)NC(=O)[C@@H](NC(=O)[C@@H](NC(=O)[C@H](CCCNC(=N)N)NC(=O)[C@H](CCCNC(=N)N)NC(=O)[C@@H](N)C(C)C)[C@@H](C)CC)C(C)C)C(C)C)C(=O)N[C@@H](CCCNC(=N)N)C(=O)N[C@@H](Cc1c[nH]c2ccccc12)C(=O)N[C@@H](C)C(N)=O` [HE8] (H-VRRIVRVLIRWA-NH2), in data set [1], the “Notes (toxicity)” value is reported as “Toxic”.
Take `CC[C@H](C)[C@H](NC(=O)[C@H](CCCNC(=N)N)NC(=O)[C@@H](NC(=O)[C@H](C)NC(=O)[C@@H](NC(=O)[C@@H](NC(=O)[C@H](CC(C)C)NC(=O)[C@H](CCCNC(=N)N)NC(=O)[C@@H](N)C(C)C)[C@@H](C)CC)C(C)C)C(C)C)C(=O)N[C@@H](Cc1c[nH]c2ccccc12)C(=O)N[C@@H](CCCNC(=N)N)C(=O)N[C@@H](CCCNC(=N)N)C(N)=O` [Peptide 1018] (H-VRLIVAVRIWRR-NH2): the “G. mellonella survival, No infection” value in data set [2] (24 h) and in [2] (48 h) was 90 ± 14% throughout. The results for the “C. elegans survival, No infection” value in data set [3] (24 h) and in data set [3] (48 h) were 97 ± 4% and 88 ± 9%, respectively. In addition, in data set [4], the “% Biofilm Inhibition Sa” value is reported as 67%. Also, in data set [5], the “MBIC50 P. aeruginosa” value was determined as 2.5 µg/mL. In [6], the “MBIC50 S. aureus” value was 20 µg/mL. For the same compound, the “% Biofilm Inhibition Pa” value in [7] was 99%. Also, the “Minimal Biofilm Inhibitory Concentration (MBIC)” value in [8] was found to be 24 µg/mL. In data set [9], the “% Biofilm Inhibition Kp” value is 99%.
On to `CC[C@H](C)[C@H](NC(=O)[C@H](CCCNC(=N)N)NC(=O)[C@H](Cc1ccccc1)NC(=O)[C@H](CCCNC(=N)N)NC(=O)[C@@H](N)CCCCN)C(=O)N[C@@H](CCCNC(=N)N)C(=O)N[C@H](C(=O)N[C@@H](CCCNC(=N)N)C(=O)N[C@H](C(N)=O)C(C)C)C(C)C` [Peptide 1037] (H-KRFRIRVRV-NH2; N-terminus assumed), for which, in data set [10], the “antimicrobial activity MIC” value was 304 µg/mL. Moreover, the “anti-biofilm activity IC50” value in data set [11] is 5 µg/mL.

The values are drawn from patent US20190315823A1, “SMALL CATIONIC ANTI-BIOFILM AND IDR PEPTIDES” (priority 2013, published 2019).
